Each block holds one compound with its values, some of them ahead of it.
Legend:
[1] = tested on: Fusarium nivale (var. majus); experiment: Fusarium nivale (var. majus) test (wheat) / preventive; format: in vivo; conditions: 500 ppm of active ingredient, evaluated 5 days after inoculation
Source text: Solvent: 49 parts by weight of N,N-dimethylacetamide Emulsifier: 1 part by weight of alkylaryl polyglycol ether […] To test for preventive activity, young plants are sprayed with the preparation of active compound or active compound combination at the stated rate of application. After the spray coating has been dried, the plants are slightly injured by using a sandblast and afterwards they are sprayed with a conidia suspension of Fusarium nivale (var. majus). The plants are placed in the greenhouse under a translucent incubation cabinet at a temperature of approximately 10° C. and a relative atmospheric humidity of approximately 100%.

Phakopsora pachyrhizi = experiment: In vivo Phakopsora test (soybeans) / preventive; conditions: 10 ppm of active ingredient, evaluated 7 days after inoculation
[2] = logP by HPLC on reversed phase columns (EEC directive 79/831 Annex V.A8); format: physicochemical; conditions: method [a]: LC-MS at pH 2.7, 0.1% formic acid in water / acetonitrile
Method: Measurement of log P values was performed according EEC directive 79/831 Annex V.A8 by HPLC (High Performance Liquid Chromatography) on reversed phase columns with the following methods: ^[a] Measurement of LC-MS was done at pH 2.7 with 0.1% formic acid in water and with acetonitrile (contains 0.1% formic acid) as eluent with a linear gradient from 10% acetonitrile to 95% acetonitrile. ^[b] Measurement with LC-MS was done at pH 7.8 with 0.001 molar ammonium hydrogen carbonate solution in water as eluent with a linear gradient from 10% acetonitrile to 95% acetonitrile.

Botrytis cinerea = experiment: In vivo preventive test on Botrytis cinerea (grey mould), gherkin plants; conditions: 500 ppm, preventive spray, grading 4 to 5 days after contamination
Method: (§1) The active ingredients tested are prepared by homogenization in a mixture of acetone/tween/DMSO and then diluted with water to obtain the desired active material concentration.
(§2) Gherkin plants (“Vert petit de Paris” variety), sown in starter cups on a 50/50 peat soil-pozzolana substrate and grown at 24° C., are treated at the Z11 cotyledon stage by spraying with the active ingredient prepared as described above. Plants, used as controls, are treated with the mixture of acetone/tween/DMSO/water not containing the active material.
After 24 hours, the plants are contaminated by spraying the cotyledons with an aqueous suspension of cryopreserved Botrytis cinerea spores (50 000 spores per ml). The spores are suspended in a nutrient solution composed of 10 g/L of PDB, 50 g/L of D-Fructose, 2 g/L of NH4NO3 and 1 g/L of KH2PO4. The contaminated gherkin plants are incubated at 17° C. and at 90% relative humidity.
Grading (% of efficacy) is carried out 4 to 5 days after the contamination, in comparison with the control plants.

Pyrenophora teres = experiment: In vivo preventive test on Pyrenophora teres (net blotch on barley); conditions: 500 ppm, barley plants, preventive spray, grading 14 days after contamination
Method: Barley plants (“Plaisant” variety), sown in starter cups on a 50/50 peat soil-pozzolana substrate and grown at 22° C., are treated at the 1-leaf stage (10 cm height) by spraying with the active ingredient prepared as described above. Plants, used as controls, are treated with the mixture of acetone/tween/DMSO/water not containing the active material. After 24 hours, the plants are contaminated by spraying the leaves with an aqueous suspension of Pyrenophora teres spores (12 000 spores per ml). The spores are collected from a 12-day-old culture. The contaminated barley plants are incubated for 48 hours at 20° C. and at 100% relative humidity, and then for 12 days at 20° C. at 70-80% relative humidity. Grading (% of efficacy) is carried out 14 days after the contamination, in comparison with the control plants.

Puccinia recondita = experiment: In vivo preventive test on Puccinia recondita (brown rust on wheat); conditions: 500 ppm, wheat plants, preventive spray, grading 12 days after contamination
Method: (§3) The active ingredients tested are prepared by homogenization in a mixture of acetone/tween/DMSO, and then diluted with water to obtain the desired active material concentration.
Wheat plants (“Scipion” variety), sown in starter cups on a 50/50 peat soil-pozzolana substrate and grown at 22° C., are treated at the 1-leaf stage (10 cm height) by spraying with the active ingredient prepared as described above. Plants, used as controls, are treated with the mixture of acetone/tween/DMSO/water not containing the active material.
(§4) After 24 hours, the plants are contaminated by spraying the leaves with an aqueous suspension of Puccinia condita spores (100 000 spores per ml). The spores are collected from an infected plant and are suspended in water containing 2.5 ml/l of Tween 80 at 10%. The contaminated wheat plants are incubated for 24 hours at 20° C. and at 100% relative humidity, and then for 10 days at 20° C. and at 70-80% relative humidity.
(§5) Grading (% of efficacy) is carried out 12 days after the contamination, in comparison with the control plants.

Septoria tritici = experiment: In vivo preventive test on Septoria tritici (leaf spot on wheat); conditions: 500 ppm, wheat plants, preventive spray, grading 24 days after contamination
Method: Wheat plants (“Scipion” variety), sown in starter cups on a 50/50 peat soil-pozzolana substrate and grown at 22° C., are treated at the 1-leaf stage (10 cm height) by spraying with the active ingredient prepared as described above. Plants, used as controls, are treated with the mixture of acetone/tween/DMSO/water not containing the active material. After 24 hours, the plants are contaminated by spraying the leaves with an aqueous suspension of cryopreserved Septoria tritici spores (500 000 spores per ml). The contaminated wheat plants are incubated for 72 hours at 18° C. and at 100% relative humidity, and then for 21 days at 90% relative humidity. Grading (% of efficacy) is carried out 24 days after the contamination, in comparison with the control plants.

Sphaerotheca fuliginea = experiment: In vivo preventive test on Sphaerotheca fuliginea (powdery mildew on cucurbits); conditions: 500 ppm, gherkin plants, preventive spray, grading 12 days after contamination
Method: as §1, §2
After 24 hours, the plants are contaminated by spraying the cotyledons with an aqueous suspension of Sphaerotheca fuliginea spores (100 000 spores per ml). The spores are collected from infected plants. The contaminated gherkin plants are incubated at about 20° C. and at 70-80% relative humidity.
as §5

Uromyces appendiculatus = experiment: In vivo preventive test on Uromyces appendiculatus (bean rust); conditions: 500 ppm, bean plants, preventive spray, grading 11 days after contamination
Method: as §3
Bean plants (“Saxa” variety), sown in starter cups on a 50/50 peat soil-pozzolana substrate and grown at 24° C., are treated at the 2-leaf stage (9 cm height) by spraying with the active ingredient prepared as described above. Plants, used as controls, are treated with the mixture of acetone/tween/DMSO/water not containing the active material.
as §4, with “of Uromyces appendiculatus” for “of Puccinia condita”, “spores (150” for “spores (100”, “from” for “from an”, “infected plants” for “infected plant”, “contaminated bean” for “contaminated wheat”
Grading (% of efficacy) is carried out 11 days after the contamination, in comparison with the control plants.

Compound: Cn1nc(C(F)F)c(C(=O)Nc2cccc3c2C(C)(C)OC3(C)C)c1F [Example 1]
Eff. % [1]: 92%

Compound: Cn1nc(C(F)F)c(C(=O)Nc2cccc3c2C(C)(C)OC3(C)C)c1Cl [Example 2]
Eff. % (Phakopsora pachyrhizi): 96%
Eff. % [1]: 86%

logP [2]: 3.27[a]
Compound: CCC1(CC)OC(C)c2c(NC(=O)c3c(C(F)F)nn(C)c3F)cccc21 (stereo not shown) [Example 13]
Eff. % (Botrytis cinerea): 100%
Eff. % (Pyrenophora teres): 83%
Eff. % (Puccinia recondita): 100%
Eff. % (Septoria tritici): 79%
Eff. % (Sphaerotheca fuliginea): 100%
Eff. % (Uromyces appendiculatus): 100%
